Results on seven compounds are retold here after article PMC9667546, “Selective Inhibition of Bruton’s Tyrosine Kinase by a Designed Covalent Ligand Leads to Potent Therapeutic Efficacy in Blood Cancers Relative to Clinically Used Inhibitors” (ACS Pharmacology & Translational Science, 2022).

Where “and” joins values, the source holds several entries; their conditions need not be identical. Identical values can stand only once.

In series [1] the target is T1, TEC (Homo sapiens, UniProt P42680).
T1 construct: host or cells: HEK296T (so in the source)
T1 sequence (P42680 1-631): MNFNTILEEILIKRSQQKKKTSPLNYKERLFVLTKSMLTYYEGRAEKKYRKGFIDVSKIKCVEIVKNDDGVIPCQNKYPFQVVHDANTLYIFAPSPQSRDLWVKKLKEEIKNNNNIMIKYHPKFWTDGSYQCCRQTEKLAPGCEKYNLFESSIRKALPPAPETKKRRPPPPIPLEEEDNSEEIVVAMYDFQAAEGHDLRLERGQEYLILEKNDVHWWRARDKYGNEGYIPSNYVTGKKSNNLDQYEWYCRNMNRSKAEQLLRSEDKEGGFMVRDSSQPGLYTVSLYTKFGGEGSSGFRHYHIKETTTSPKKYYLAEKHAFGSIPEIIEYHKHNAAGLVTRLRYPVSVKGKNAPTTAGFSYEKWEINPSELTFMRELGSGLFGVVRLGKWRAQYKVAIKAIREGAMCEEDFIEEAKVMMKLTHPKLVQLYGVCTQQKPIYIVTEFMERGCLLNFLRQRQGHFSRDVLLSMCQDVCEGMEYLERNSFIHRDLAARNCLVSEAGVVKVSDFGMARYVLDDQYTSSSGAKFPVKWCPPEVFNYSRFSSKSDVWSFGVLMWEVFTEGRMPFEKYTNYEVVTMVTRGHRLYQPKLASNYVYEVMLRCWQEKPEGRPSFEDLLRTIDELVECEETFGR
As to conditions: 1 µM inhibition screening; ref SI 8–10; cited from earlier work.

The target of series [2] is T2, EGFR (Homo sapiens, UniProt P00533).
T2 construct: host or cells: HEK296T (so in the source)
The settings on record: cited from earlier work.

The target in series [3] is T3, TXK (Homo sapiens, UniProt P42681).
T3 construct: host or cells: HEK296T (so in the source)
T3 sequence (P42681 1-527): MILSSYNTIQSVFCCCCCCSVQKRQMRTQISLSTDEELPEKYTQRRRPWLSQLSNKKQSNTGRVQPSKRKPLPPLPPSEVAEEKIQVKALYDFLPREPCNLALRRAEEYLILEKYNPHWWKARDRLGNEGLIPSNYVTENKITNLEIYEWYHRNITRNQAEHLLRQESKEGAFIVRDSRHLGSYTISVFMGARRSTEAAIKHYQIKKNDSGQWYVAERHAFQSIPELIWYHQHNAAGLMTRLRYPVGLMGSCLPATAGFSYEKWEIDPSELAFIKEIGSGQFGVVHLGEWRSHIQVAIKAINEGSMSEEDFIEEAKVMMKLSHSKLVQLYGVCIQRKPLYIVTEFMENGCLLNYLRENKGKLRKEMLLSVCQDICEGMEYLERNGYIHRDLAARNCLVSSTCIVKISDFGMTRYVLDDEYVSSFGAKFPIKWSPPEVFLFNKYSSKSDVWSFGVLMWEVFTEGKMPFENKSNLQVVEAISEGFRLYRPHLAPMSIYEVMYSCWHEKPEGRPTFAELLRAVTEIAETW
The settings on record: cited from earlier work.

In series [4] the target is BLK (Homo sapiens, UniProt P51451). As to conditions: cited from earlier work.
Series [5] deals with Her2. As to conditions: read-out: IC50, Her2; Table S3 heat map; ref SI 1-19; cited from earlier work.
Series [6] concerns the target BTK (Homo sapiens, UniProt Q06187). On the set-up: purchased Promega Corporation V2941. As to conditions: Table S3 heat map; ref SI 1-19; read-out: IC50, BTK; cited from earlier work.
The test system of series [7] is MOLM-13 cells (AML). Kind of series: Cell viability assay (CellTiter-Glo), MOLM-13. It counts as cell-based. As to conditions: Homo sapiens, 72 h, n = 3. As to the method: (§1) All cell lines were purchased from ATCC, except for DoHH-2 cells that were obtained from DSMZ. Cells were cultivated in complete DMEM supplemented with 10% (vol/vol) FBS (Gibco) and 1% of penicillin/streptomycin (Gibco). The cells were grown in a humidified atmosphere of 5% CO2 at 37°C, with the medium changed every other day.
(§2) Cells were inoculated at a density of 5000 cells/well. Serially diluted compounds (starting at 50 μM) were added 24 h later. The assay was performed in triplicates. After 72 h of incubation, cellular viability was assessed by CellTiter-Glo (Promega) according to the manufacturer’s instructions. The values were normalized with the vehicle (DMSO), and the IC50 was calculated using GraphPad Prism 8.
For orientation: In ATP-based viability assays light output follows the ATP content of the culture.

For series [8], the system named is HBEC-5i cell model. Kind of series: In vitro blood–brain barrier permeability (translocation), HBEC-5i cell model. It counts as in vitro ADME, human. As to conditions: Translocation 24 h, compound 15 μM. The method, then: Human cerebral microvascular endothelial cells (HBEC-5i) were cultured as a monolayer on attachment factor protein solution (AF)-coated T-flasks (Gibco), using DMEM/F12 medium (Gibco), supplemented with 10% FBS, 1% penicillin/streptomycin, and 40.0 μg/mL endothelial cell growth supplement (ECGS, Sigma), according to the manufacturer’s instructions. The capacity of the compounds to cross the brain–blood barrier (BBB) was evaluated using an in vitro HBEC-5i cell model, as previously described.[29] Samples from the apical and basolateral sides were collected, and fluorescence intensity was measured using a Varioskan LUX multimode microplate reader. The retention was considered the difference between the initial fluorescence of compounds (100%) and the aggregated apical and basolateral fluorescence.

Series [9] has as its system Raji cells (BL). Put plainly: Cell viability assay (CellTiter-Glo), Raji. The settings on record: Homo sapiens, 72 h, n = 3. It is filed as cell-based. As to the method:
as §1, §2

The test system of series [10] is Raji cells. Put plainly: Mice xenograft model of Burkitt’s lymphoma (subcutaneous Raji cells). It counts as in vivo. The method, then: Female adult BALB/c/NSG mice were injected subcutaneously with 1 × 10^6 Raji cells, in a 1:1 solution of Matrigel Matrix (Corning) to create solid tumors. When tumors reached 180 mm^3 on average, mice were randomized into four groups (n = 6/group), and dosing began every 2 days. […] Tumor size and body weight were monitored periodically for 12 days. At the end of the experiment, mice necropsies were performed. Stereological analysis was conducted by the Histopathology Unit at Instituto Gulbenkian de Ciência and by the Comparative Pathology Unit at Instituto de Medicina Molecular João Lobo Antunes. Quantification of metastases and cell necrosis was performed in all groups (n = 5/group). Statistical analysis was conducted using one-way ANOVA. The Dunnet test was used to analyze the statistical significance between the treatment groups and the control.

The test system of series [11] is HL-60 cells (APML). Kind of series: Cell viability assay (CellTiter-Glo), HL-60. It is filed as cell-based. The settings on record: Homo sapiens, 72 h, n = 3. As to the method: as §1, §2
The test system of series [12] is DoHH-2 cells (DLBCL). Put plainly: Cell viability assay (CellTiter-Glo), DoHH-2. The settings on record: Homo sapiens, 72 h, n = 3. It is filed as cell-based. As to the method: as §1, §2
The subject of series [13] is PBMCs from CLL patients. Put plainly: Zebrafish patient-derived xenografts of chronic lymphocytic leukemia. It is filed as in vivo. The settings on record: all zPDXs, 48 h of treatment. The method, then:
Whole blood (3–6 mL) from CLL patients (Supporting Table S1) was collected, and PBMCs were purified by Ficoll-Paque PLUS (GE Healthcare) density centrifugation.
The collected PBMCs were resuspended in RPMI (Biowest) with 3 times their volume and centrifuged at 1400 rpm, 4 °C, for 7 min. Cell pellets were resuspended in DPBS 1× (Biowest) supplemented with universal nuclease at 25 U/mL (Thermo Scientific). Concentration was normalized to […] for zebrafish patient-derived xenograft (zPDX) generation. Prior to drug efficacy analysis in zebrafish, the cells were distributed to proceed for flow cytometry, to determine the percentage of CD19+CD5+ cells within the CD45+ population, from PBMCs of each CLL patient. The maximum tolerated concentration was also determined for each compound in noninjected zebrafish larvae (Supporting Figure S1).
Zebrafish larvae were anesthetized with Tricaine 1×, and thawed PBMCs were microinjected into the perivitelline space of anesthetized zebrafish larvae at 48 h post fertilization. […] At the end of the assay, 4 days post injection, zebrafish xenografts were sacrificed with an overdose of Tricaine 25× and fixed in 4% formaldehyde (Thermo Scientific) overnight, followed by storage in 100% methanol (VWR) at −20 °C.
The whole mount immunofluorescence protocol was started by rehydrating the xenografts through methanol series (75% > 50% > 25% in PBS 1×-Triton 0.1%). Next, the xenografts were permeabilized in PBS 1× with 0.1% (v/v) Triton and incubated in a blocking solution (containing 1% BSA and 1.5% goat serum) for 1 h at room temperature. The xenografts were incubated with the primary antibodies (anti-cleaved caspase 3—Cell Signaling Technology, clone Asp175, 9661, 1:100; anti-human mitochondria—Merck Millipore, clone 113-1, MAB1273, 1:50) diluted in the blocking solution overnight at 4 °C, followed by additional overnight incubation with 1:400 of secondary antibodies: Alexa goat anti-rabbit 594 (35560, Thermo Scientific) and Alexa goat anti-mouse 647 (84545, Thermo Scientific), and nuclei counterstaining with DAPI at 50 μg/mL (Sigma-Aldrich).
All images were obtained using a Zeiss LSM 980 Upright confocal laser scanning microscope. Xenografts were mounted in in-house Mowiol mounting media, and sequential images along tumor’s depth (from cloaca until the end of the tail) with a 5 μm interval were acquired using the z-stack function. […] For tumor burden, the area occupied by the PBMCs in each slice of the z-stack pile was determined by ImageJ software and summed up to obtain the tumor burden per xenograft. […]
Statistical analysis was performed using GraphPad Prism 8. […] A Gaussian distribution was only assumed for data sets that pass both normality tests and were analyzed by an unpaired t-test with Welch’s correction. […]
In general terms: Xenograft models place foreign cells or tissue in a host animal.

[14] abbreviates: 1 µM inhibition screening, ref SI 8–10.
[15] abbreviates: 10 mg/kg, average of 5 animals, stereological analysis.
Where [16] appears, read: 10 mg/kg, individual animals #1 to #5 in order.

Sequence of BLK (P51451 whole entry): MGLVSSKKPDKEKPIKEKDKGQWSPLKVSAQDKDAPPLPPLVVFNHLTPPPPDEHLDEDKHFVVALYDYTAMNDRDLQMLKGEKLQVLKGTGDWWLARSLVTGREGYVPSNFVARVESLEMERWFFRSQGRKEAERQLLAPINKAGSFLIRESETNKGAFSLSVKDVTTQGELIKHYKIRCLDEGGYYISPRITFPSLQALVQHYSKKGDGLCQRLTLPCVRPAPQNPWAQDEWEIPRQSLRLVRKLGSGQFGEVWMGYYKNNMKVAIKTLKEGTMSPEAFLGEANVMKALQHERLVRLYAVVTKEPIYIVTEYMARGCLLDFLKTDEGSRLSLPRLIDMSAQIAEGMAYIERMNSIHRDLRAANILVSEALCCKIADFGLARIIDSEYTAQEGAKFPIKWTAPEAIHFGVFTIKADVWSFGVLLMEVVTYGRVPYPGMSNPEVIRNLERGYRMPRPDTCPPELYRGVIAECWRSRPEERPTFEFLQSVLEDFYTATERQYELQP
T2 sequence (P00533 25-1210): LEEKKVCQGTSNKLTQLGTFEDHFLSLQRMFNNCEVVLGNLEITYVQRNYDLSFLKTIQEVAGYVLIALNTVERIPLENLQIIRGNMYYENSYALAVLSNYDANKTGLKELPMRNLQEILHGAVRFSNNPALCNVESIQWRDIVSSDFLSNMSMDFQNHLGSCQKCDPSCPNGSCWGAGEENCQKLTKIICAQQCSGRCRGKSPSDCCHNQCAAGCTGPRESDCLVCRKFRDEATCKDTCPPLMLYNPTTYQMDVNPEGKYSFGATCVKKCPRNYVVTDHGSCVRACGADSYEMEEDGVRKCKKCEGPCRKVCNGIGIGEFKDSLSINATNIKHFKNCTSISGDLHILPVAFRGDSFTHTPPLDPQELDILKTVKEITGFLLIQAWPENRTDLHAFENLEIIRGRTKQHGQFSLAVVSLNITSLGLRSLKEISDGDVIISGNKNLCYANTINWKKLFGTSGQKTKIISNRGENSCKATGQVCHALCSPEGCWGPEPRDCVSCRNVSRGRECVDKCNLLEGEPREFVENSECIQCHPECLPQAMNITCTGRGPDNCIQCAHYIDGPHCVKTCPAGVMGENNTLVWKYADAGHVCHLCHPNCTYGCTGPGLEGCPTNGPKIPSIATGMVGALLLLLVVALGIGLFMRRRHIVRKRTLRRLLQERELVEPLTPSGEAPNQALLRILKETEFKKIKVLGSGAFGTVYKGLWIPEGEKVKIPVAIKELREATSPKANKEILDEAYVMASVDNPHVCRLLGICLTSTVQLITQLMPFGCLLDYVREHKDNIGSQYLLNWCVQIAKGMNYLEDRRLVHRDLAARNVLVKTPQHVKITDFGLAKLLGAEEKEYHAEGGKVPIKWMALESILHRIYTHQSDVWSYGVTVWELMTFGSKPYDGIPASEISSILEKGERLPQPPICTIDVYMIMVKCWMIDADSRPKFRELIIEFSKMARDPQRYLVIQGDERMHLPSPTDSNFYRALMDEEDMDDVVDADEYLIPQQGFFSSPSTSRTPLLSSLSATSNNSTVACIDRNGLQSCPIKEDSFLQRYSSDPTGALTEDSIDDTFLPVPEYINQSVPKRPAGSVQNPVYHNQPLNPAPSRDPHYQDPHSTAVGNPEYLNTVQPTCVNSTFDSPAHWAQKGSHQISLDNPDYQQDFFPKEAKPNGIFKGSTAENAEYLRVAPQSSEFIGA
Sequence of BTK (Q06187 whole entry): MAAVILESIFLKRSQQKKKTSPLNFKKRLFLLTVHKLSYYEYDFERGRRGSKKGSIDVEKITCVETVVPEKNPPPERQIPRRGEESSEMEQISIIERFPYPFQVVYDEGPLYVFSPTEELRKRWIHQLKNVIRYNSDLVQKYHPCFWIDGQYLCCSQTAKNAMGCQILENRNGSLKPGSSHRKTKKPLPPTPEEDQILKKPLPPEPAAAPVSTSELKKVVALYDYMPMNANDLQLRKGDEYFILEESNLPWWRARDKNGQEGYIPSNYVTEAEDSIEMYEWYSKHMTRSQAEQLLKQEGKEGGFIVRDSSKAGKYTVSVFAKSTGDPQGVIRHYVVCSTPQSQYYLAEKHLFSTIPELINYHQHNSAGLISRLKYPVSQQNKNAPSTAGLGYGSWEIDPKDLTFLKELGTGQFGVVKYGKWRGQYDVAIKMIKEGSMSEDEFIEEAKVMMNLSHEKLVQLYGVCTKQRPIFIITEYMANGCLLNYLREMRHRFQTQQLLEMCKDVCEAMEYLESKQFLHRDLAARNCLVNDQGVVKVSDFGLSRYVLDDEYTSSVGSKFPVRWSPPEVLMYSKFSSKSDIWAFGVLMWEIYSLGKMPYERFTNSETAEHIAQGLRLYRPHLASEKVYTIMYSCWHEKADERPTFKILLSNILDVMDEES

On to `C=CC(=O)N1CCC(CNc2ncnc(N)c2-c2ccc(Oc3ccccc3)cc2)CC1` [Evobrutinib, evobrutinib], for which, in series [1], the “inhibition, TEC” value is listed as 82%. Besides, in series [2] (setting [14]), the “inhibition, EGFR” value is given as 0%. The “inhibition, TXK” value in series [3] (setting [14]) is 36%. Besides, in series [4] (setting [14]), the “inhibition, BLK” value is listed as 36%.
What is called IC50 is the concentration that inhibits the measured activity by half. On to `CC#CC(=O)N1CC[C@@H](n2c(=O)n(-c3ccc(Oc4ccccc4)cc3)c3c(N)ncnc32)C1` [Tirabrutinib, tirabrutinib], for which the IC50 in series [5] was 7.31 µM; in [3] (Table S3 heat map, ref SI 1-19), 0.092 µM; in series [4] (read-out: IC50, BLK, Table S3 heat map, ref SI 1-19) it was 0.3 µM.
In the case of `NC(=O)[C@H]1CCN(c2ncnc(N)c2F)C[C@@H]1N1CCC[C@@H](Nc2cc(Cl)cc(C(F)(F)F)c2)C1=O` [Vecabrutinib], the IC50 is more than 6 µM in [2] (Table S3 heat map, ref SI 1-19) and 0.003 µM in [6].
For the compound `C=CC(=O)N1CCC([C@@H]2CCNc3c(C(N)=O)c(-c4ccc(Oc5ccccc5)cc4)nn32)CC1` [Zanubrutinib, zanubrutinib], the IC50 in series [5] is 0.661 µM.
On to `CC#CC(=O)N1CCC[C@H]1c1nc(-c2ccc(C(=O)Nc3ccccn3)cc2)c2c(N)nccn12` [acalabrutinib], for which the IC50 in [7] was 28.4 ± 0.03 µM. Also, the “% Fluorescence, Basolateral side (permeability to the BBB)” value in series [8] is listed as 29.2%.
For the compound `C=CC(=O)N1CCC[C@@H](n2nc(-c3ccc(Oc4ccccc4)cc3)c3c(N)ncnc32)C1` [ibrutinib, reference compound], the IC50 in series [5] was […]. In addition, the IC50 in series [9] amounted to 36.2 ± 0.31 µM. For the same compound, the IC50 in series [7] is approximately 0.46 µM. Moreover, the “reduction in percentage of metastases” value in [10] (10 mg/kg i.p. every 2 days, n = 5/group) was “around 30%”. Moreover, in [10] (setting [15]), the “Metastasis volume, Brain, Average” value was determined as 0.78 mm³; the “Metastasis volume, Liver, Average” value amounted to 4.73 mm³; the “Metastasis volume, Lung, Average” value is on record as 26.92 mm³; the “Metastasis volume, Spinal, Average” value stood at 51.37 mm³. In addition, the “Secondary tumour, Average” value in [10] (setting [15]) came out at 64.21 mm³. For the same compound, in series [10] (setting [16]), the “Metastasis volume, Brain, single animals” value was 0.86 mm³ and 0.82 mm³ and 0.00 mm³ and 1.72 mm³ and 0.48 mm³; the “Metastasis volume, Liver, single animals” value was 12.05 mm³ and 11.54 mm³ and 0.03 mm³ and 0.00 mm³ (2×); the “Metastasis volume, Lung, single animals” value was 134.59 mm³ and 0.00 mm³ (4×); the “Metastasis volume, Spinal, single animals” value is 55.71 mm³ and 86.64 mm³ and 4.378 mm³ and 10.76 mm³ and 99.35 mm³. Also, the “Secondary tumour, single animals” value in [10] (setting [16]) was 96.59 mm³ and 0.00 mm³ (3×) and 224.46 mm³. Also, in series [11], the midpoint of inhibition, the IC50, lay at 7.74 ± 0.03 µM. This compound had an IC50 in series [12] of approximately 0.07 µM. Further, the “% Fluorescence, Basolateral side (permeability to the BBB)” value in series [8] was found to be 51.9%.
For `CC1(C)CCC(CN2CCN(c3ccc(C(=O)NS(=O)(=O)c4ccc(NCC5CCOCC5)c([N+](=O)[O-])c4)c(Oc4cnc5[nH]ccc5c4)c3)CC2)=C(c2ccc(Cl)cc2)C1` [venetoclax, reference compound], the “effect on tumor incidence and burden” value in series [13] is “major impact on tumor incidence and burden”.
